Source: patent US12258327B2, “5-membered heteroaryl-containing aminopyridine compounds as EGFR inhibitors” (YUHAN CORPORATION, priority 2021, dated 2025)
Like-named read-outs stand apart in the source and are kept apart here.

Columns and labels:
EGFR del19/T790M/C797S = EGFR del19/T790M/C797S (Homo sapiens, UniProt P00533, C797S/DEL746-750/T790M); assay: Biochemical EGFR kinase assay (Lance Ultra TR-FRET), triple mutant del19/T790M/C797S
Procedure, shortened: (§1)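 In this biochemical assay, phosphorylation after a one-hour room-temperature reaction was detected with europium-labelled anti-phosphopeptide antibody at 2 nM final concentration.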

EGFR L858R/T790M/C797S = EGFR L858R/T790M/C797S (Homo sapiens, UniProt P00533, C797S/L858R/T790M); assay: Biochemical EGFR kinase assay (Lance Ultra TR-FRET), triple mutant L858R/T790M/C797S
EGFR L858R/T790M/C797S, sequence (P00533 25-1210 T790M/C797S/L858R): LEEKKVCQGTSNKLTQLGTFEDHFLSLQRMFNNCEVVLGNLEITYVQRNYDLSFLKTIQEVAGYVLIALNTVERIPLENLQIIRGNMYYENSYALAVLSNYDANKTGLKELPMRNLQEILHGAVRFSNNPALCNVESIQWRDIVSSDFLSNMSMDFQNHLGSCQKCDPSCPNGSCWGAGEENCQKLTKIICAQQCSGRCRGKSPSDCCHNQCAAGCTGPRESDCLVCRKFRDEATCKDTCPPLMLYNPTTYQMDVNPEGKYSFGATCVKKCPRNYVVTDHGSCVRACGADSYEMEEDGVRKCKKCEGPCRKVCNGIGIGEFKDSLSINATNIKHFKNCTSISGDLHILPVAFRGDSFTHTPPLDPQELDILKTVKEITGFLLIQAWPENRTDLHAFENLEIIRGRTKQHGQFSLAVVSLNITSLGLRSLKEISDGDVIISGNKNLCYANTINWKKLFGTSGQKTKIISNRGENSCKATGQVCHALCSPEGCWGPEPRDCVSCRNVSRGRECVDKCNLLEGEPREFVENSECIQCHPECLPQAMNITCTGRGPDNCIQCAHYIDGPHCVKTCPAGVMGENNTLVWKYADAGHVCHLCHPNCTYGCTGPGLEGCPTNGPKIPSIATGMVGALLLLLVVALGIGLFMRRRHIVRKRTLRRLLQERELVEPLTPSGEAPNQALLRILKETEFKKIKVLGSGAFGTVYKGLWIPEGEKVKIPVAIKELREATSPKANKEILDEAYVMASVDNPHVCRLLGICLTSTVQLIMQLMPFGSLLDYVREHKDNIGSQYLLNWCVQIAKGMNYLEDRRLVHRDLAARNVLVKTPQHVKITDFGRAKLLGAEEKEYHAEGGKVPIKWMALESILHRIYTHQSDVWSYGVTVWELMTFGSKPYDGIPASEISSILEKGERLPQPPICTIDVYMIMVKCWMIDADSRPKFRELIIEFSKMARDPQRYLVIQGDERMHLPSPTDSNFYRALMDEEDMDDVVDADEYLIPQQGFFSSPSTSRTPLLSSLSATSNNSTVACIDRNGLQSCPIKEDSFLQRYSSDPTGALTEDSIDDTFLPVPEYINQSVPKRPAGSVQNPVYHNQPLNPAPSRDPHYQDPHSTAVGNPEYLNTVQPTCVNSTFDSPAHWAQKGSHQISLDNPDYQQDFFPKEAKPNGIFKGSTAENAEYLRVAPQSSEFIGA
Procedure, shortened: as §1

EGFR del19/C797S = EGFR del19/C797S (Homo sapiens, UniProt P00533, C797S/DEL746-750); assay: Biochemical EGFR kinase assay (Lance Ultra TR-FRET), double mutant del19/C797S
Procedure, shortened: as §1

EGFR L858R/C797S = EGFR L858R/C797S (Homo sapiens, UniProt P00533, C797S/L858R); assay: Biochemical EGFR kinase assay (Lance Ultra TR-FRET), double mutant L858R/C797S
EGFR L858R/C797S, sequence (P00533 25-1210 C797S/L858R): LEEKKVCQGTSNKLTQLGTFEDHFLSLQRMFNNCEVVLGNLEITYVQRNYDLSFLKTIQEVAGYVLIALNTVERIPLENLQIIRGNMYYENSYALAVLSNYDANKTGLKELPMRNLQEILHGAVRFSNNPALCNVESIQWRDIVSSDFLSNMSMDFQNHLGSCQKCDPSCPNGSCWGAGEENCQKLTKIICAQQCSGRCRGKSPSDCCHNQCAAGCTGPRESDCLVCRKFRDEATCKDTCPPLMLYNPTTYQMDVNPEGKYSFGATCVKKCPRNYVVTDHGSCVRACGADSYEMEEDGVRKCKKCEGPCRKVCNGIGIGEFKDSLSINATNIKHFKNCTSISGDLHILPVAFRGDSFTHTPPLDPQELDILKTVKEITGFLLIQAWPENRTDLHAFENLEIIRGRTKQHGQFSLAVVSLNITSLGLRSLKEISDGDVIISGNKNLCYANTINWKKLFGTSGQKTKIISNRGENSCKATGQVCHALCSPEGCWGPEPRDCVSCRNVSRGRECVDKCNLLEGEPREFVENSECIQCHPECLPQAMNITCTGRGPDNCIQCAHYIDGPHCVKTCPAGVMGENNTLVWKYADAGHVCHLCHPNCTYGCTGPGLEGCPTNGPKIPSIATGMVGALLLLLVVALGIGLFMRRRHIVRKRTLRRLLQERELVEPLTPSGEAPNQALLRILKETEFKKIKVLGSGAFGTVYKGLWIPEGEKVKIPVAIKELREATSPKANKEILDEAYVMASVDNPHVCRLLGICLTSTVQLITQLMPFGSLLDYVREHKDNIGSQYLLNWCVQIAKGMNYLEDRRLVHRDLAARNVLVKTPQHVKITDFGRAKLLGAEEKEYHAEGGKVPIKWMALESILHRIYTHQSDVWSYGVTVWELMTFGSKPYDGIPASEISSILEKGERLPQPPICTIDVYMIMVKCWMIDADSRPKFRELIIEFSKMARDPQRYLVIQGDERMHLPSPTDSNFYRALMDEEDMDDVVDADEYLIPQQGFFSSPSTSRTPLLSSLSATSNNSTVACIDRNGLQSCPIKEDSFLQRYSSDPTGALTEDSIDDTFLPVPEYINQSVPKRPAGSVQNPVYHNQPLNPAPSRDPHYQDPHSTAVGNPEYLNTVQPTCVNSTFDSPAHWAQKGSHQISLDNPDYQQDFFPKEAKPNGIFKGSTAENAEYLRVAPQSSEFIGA
Procedure, shortened: as §1

EGFR wildtype (WT) = EGFR wildtype (WT) (Homo sapiens, UniProt P00533); assay: Biochemical EGFR kinase assay (Lance Ultra TR-FRET), wildtype
EGFR wildtype (WT), sequence (P00533 25-1210): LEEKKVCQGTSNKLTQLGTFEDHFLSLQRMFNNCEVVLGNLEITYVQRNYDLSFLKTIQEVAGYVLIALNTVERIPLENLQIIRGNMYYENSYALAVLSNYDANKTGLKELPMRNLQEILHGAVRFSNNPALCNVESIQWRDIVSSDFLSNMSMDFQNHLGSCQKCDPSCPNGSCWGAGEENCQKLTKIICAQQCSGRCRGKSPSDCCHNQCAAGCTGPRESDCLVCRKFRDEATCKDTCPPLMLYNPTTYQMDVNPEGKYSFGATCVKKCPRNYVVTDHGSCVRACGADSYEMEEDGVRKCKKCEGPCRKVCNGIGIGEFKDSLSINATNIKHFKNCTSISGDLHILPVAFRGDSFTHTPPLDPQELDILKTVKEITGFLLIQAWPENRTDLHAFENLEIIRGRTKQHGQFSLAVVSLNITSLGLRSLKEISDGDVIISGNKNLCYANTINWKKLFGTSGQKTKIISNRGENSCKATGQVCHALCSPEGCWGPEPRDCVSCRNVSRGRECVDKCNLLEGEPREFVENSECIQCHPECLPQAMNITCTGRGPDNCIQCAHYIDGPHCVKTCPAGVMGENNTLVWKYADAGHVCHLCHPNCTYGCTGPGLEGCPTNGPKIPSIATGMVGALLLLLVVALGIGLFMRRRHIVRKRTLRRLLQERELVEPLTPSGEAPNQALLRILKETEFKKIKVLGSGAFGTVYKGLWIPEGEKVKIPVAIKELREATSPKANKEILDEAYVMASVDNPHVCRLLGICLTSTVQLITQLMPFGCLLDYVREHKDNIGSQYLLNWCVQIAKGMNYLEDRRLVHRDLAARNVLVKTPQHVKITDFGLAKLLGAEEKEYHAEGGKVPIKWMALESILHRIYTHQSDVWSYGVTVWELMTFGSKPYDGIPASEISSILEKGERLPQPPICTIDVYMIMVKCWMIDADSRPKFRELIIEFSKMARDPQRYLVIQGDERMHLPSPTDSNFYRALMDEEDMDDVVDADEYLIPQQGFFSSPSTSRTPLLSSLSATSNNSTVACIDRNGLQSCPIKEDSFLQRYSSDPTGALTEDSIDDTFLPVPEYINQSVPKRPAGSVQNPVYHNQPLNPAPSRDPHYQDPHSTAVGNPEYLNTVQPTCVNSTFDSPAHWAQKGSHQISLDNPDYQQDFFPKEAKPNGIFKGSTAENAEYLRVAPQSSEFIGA
Procedure, shortened: as §1

[1] = IC50 del19/T790M/C797S (nM) 100 μM ATP, 100 μM ATP
[2] = IC50 L858R/T790M/C797S (nM) 100 μM ATP, 100 μM ATP
[3] = IC50 del19/C797S (nM) 100 μM ATP, 100 μM ATP
[4] = IC50 L858R/C797S (nM) 100 μM ATP, 100 μM ATP
[5] = IC50 WT (nM) 100 μM ATP, 100 μM ATP
[6] = Km ATP, read-out: IC50 del19/T790M/C797S, Km ATP
[7] = Km ATP, read-out: IC50 L858R/T790M/C797S, Km ATP
[8] = Km ATP, read-out: IC50 del19/C797S, Km ATP
[9] = Km ATP, read-out: IC50 L858R/C797S, Km ATP
[10] = Km ATP, read-out: IC50 WT, Km ATP
[11] = Km ATP, read-out: IC50 del19/T790M/C797S (nM) Km ATP
[12] = Km ATP, read-out: IC50 L858R/T790M/C797S (nM) Km ATP
[13] = Km ATP, read-out: IC50 del19/C797S (nM) Km ATP
[14] = Km ATP, read-out: IC50 L858R/C797S (nM) Km ATP
[15] = Km ATP, read-out: IC50 WT (nM) Km ATP
[16] = read-out: IC50 del19/T790M/C797S (nM) 100 μM ATP, 100 μM ATP
[17] = read-out: IC50 L858R/T790M/C797S (nM) 100 μM ATP, 100 μM ATP
[18] = read-out: IC50 del19/C797S (nM) 100 μM ATP, 100 μM ATP
[19] = read-out: IC50 L858R/C797S (nM) 100 μM ATP, 100 μM ATP
[20] = read-out: IC50 WT (nM) 100 μM ATP, 100 μM ATP

EGFR del19/T790M/C797S, sequence (P00533 with tags, fused parts or gaps DEL746-750/T790M/C797S): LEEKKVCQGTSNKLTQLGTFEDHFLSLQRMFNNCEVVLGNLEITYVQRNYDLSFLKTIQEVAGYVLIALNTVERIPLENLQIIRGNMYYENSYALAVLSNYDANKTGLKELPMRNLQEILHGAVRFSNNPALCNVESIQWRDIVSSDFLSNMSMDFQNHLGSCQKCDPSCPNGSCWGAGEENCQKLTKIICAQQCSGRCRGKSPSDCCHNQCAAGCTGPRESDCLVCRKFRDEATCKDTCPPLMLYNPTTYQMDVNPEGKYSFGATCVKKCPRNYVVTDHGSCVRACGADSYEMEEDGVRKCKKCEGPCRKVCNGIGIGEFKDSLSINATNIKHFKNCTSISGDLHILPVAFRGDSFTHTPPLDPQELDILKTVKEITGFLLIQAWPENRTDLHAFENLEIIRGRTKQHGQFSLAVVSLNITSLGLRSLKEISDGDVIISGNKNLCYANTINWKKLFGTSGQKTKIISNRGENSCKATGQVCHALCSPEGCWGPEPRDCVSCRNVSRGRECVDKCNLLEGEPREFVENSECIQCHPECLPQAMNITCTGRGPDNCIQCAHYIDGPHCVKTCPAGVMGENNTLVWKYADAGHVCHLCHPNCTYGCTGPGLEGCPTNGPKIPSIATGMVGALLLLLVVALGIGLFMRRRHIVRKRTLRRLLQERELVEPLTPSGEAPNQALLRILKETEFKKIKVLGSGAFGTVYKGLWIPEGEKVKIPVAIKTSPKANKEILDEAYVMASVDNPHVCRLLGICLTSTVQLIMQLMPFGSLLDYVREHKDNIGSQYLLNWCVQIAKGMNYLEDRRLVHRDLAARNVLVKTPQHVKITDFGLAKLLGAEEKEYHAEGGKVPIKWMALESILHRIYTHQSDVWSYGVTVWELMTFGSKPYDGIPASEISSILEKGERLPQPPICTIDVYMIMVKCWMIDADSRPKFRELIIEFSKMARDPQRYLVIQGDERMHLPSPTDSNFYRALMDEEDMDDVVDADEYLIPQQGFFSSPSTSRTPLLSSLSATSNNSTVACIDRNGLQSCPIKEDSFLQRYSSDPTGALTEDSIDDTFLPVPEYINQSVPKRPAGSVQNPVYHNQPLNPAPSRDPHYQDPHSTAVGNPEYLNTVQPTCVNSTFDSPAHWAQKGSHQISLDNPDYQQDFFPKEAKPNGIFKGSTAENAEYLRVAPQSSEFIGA

Compound	IC50 (EGFR del19/T790M/C797S; [1]) [nM]	IC50 (EGFR L858R/T790M/C797S; [2]) [nM]	IC50 (EGFR del19/C797S; [3]) [nM]	IC50 (EGFR L858R/C797S; [4]) [nM]	IC50 (EGFR wildtype (WT); [5]) [nM]	IC50 (EGFR del19/T790M/C797S; [11]) [nM]	IC50 (EGFR L858R/T790M/C797S; [12]) [nM]	IC50 (EGFR del19/C797S; [13]) [nM]	IC50 (EGFR L858R/C797S; [14]) [nM]	IC50 (EGFR wildtype (WT); [15]) [nM]	other results
CC(C)(O)c1nc(-c2cnc(Nc3ccnc(-c4cnn(S(=O)(=O)C5CC5)c4)n3)cc2N[C@H]2CC[C@@H](O)CC2)cs1 [Example 76, (1s,4s)-4-((2-((2-(1-(Cyclopropylsulfonyl)-1H-pyrazol-4-yl)pyrimidin-4-yl)amino)-5-(2-(2-hydroxypropan-2-yl)thiazol-4-yl)pyridin-4-yl)amino)cyclohexan-1-ol]	0.7	2.3	0.4	3	1520						
C[C@]1(O)CC[C@@H](Nc2cc(Nc3ccnc(N4CCC[C@@H](O)C4)n3)ncc2-c2ccn(C(F)F)n2)CC1 [Example 352, (R)-1-(4-((5-(1-(Difluoromethyl)-1H-pyrazol-3-yl)-4-(((1s,4S)-4-hydroxy-4-methylcyclohexyl)amino)pyridin-2-yl)amino)pyrimidin-2-yl)piperidin-3-ol]											IC50 (EGFR del19/T790M/C797S; [6]): 7.3 nM; IC50 (EGFR L858R/T790M/C797S; [7]): 4.8 nM; IC50 (EGFR del19/C797S; [8]): 653 nM; IC50 (EGFR L858R/C797S; [9]): 105 nM; IC50 (EGFR wildtype (WT); [10]): 457 nM
CN(C)CCNC1CCC(Nc2cc(Nc3ccnc(-c4cnn(S(=O)(=O)C5CC5)c4)n3)ncc2-c2ccn(C(F)F)n2)CC1 (stereo not shown) [Example 99, N^2-(2-(1-(cyclopropylsulfonyl)-1H-pyrazol-4-yl)pyrimidin-4-yl)-5-(1-(difluoromethyl)-1H-pyrazol-3-yl)-N4-(4-((2-(dimethylamino)ethyl)amino)cyclohexyl)pyridine-2,4-diamine]	0.5	0.8	1.7	4.8	612						
O=S(=O)(C1CC1)n1cc(-c2nccc(Nc3cc(OC4CCC(O)CC4)c(-c4cnn(C(F)F)c4)cn3)n2)cn1 (stereo not shown) [Example 71, 4-((2-((2-(1-(Cyclopropylsulfonyl)-1H-pyrazol-4-yl)pyrimidin-4-yl)amino)-5-(1-(difluoromethyl)-1H-pyrazol-4-yl)pyridin-4-yl)oxy)cyclohexan-1-ol]	0.2	0.8	1.7	42.3	> 10000	0.2	0.1	3.4	2.6	26	
O=S(=O)(C1CC1)n1cc(-c2nccc(Nc3cc(N[C@H]4CC[C@@H](CO)CC4)c(-c4ccn(C5CC5)n4)cn3)n2)cn1 [Example 297, ((1s,4s)-4-((5-(1-Cyclopropyl-1H-pyrazol-3-yl)-2-((2-(1-(cyclopropylsulfonyl)-1H-pyrazol-4-yl)pyrimidin-4-yl)amino)pyridin-4-yl)amino)cyclohexyl)methanol]	0.2	0.5	0.7	3.9	582	0.1	0.1	0.5	0.3	1.6	
CC1(O)CCC(Nc2cc(Nc3ccnc(N4CC(CO)C(F)(F)C4)n3)ncc2-c2ccn(C(F)F)n2)CC1 (stereo not shown) [Example 346, (1s,4s)-4-((2-((2-(3,3-Difluoro-4-(hydroxymethyl)pyrrolidin-1-yl)pyrimidin-4-yl)amino)-5-(1-(difluoromethyl)-1H-pyrazol-3-yl)pyridin-4-yl)amino)-1-methylcyclohexan-1-ol]											IC50 (EGFR del19/T790M/C797S; IC50 del19/T790M/C797S, 100 μM ATP): 6.3 nM; IC50 (EGFR L858R/T790M/C797S; IC50 L858R/T790M/C797S, 100 μM ATP): 3.7 nM; IC50 (EGFR del19/C797S; IC50 del19/C797S, 100 μM ATP): 124 nM; IC50 (EGFR L858R/C797S; IC50 L858R/C797S, 100 μM ATP): 409 nM; IC50 (EGFR wildtype (WT); IC50 WT, 100 μM ATP): > 10000 nM; IC50 (EGFR wildtype (WT); [10]): 335 nM
CC1(N)CCC(Oc2cc(Nc3ccnc(-c4cnn(S(=O)(=O)C5CC5)c4)n3)ncc2-c2cnn(C(F)F)c2)CC1 (stereo not shown) [Example 74, N-(4-((4-Amino-4-methylcyclohexyl)oxy)-5-(1-(difluoromethyl)-1H-pyrazol-4-yl)pyridin-2-yl)-2-(1-(cyclopropylsulfonyl)-1H-pyrazol-4-yl)pyrimidin-4-amine]	8.3	25.2	103	1380	> 10000						
O=S(=O)(C1CC1)n1cc(-c2nccc(Nc3cc(N[C@H]4CC[C@](O)(C(F)(F)F)CC4)c(-c4ccn(C(F)F)n4)cn3)n2)cn1 [Example 11, (1s,4s)-4-((2-((2-(1-(Cyclopropylsulfonyl)-1H-pyrazol-4-yl)pyrimidin-4-yl)amino)-5-(1-(difluoromethyl)-1H-pyrazol-3-yl)pyridin-4-yl)amino)-1-(trifluoromethyl)cyclohexan-1-ol]											IC50 (EGFR del19/T790M/C797S; [16]): 8.6 nM; IC50 (EGFR L858R/T790M/C797S; [17]): 21.8 nM; IC50 (EGFR del19/C797S; [18]): 553 nM; IC50 (EGFR L858R/C797S; [19]): 267 nM; IC50 (EGFR wildtype (WT); [20]): > 10000 nM
CN[C@H]1CC[C@@H](Nc2cc(Nc3ccnc(-c4cnn(S(=O)(=O)C5CC5)c4)n3)ncc2-c2ccn(C(C)C)n2)CC1 [Example 86, N^2-(2-(1-(Cyclopropylsulfonyl)-1H-pyrazol-4-yl)pyrimidin-4-yl)-5-(1-isopropyl-1H-pyrazol-3-yl)-N^4-((1s,4s)-4-(methylamino)cyclohexyl)pyridine-2,4-diamine]											IC50 (EGFR del19/T790M/C797S; [16]): 0.2 nM; IC50 (EGFR L858R/T790M/C797S; [17]): 0.3 nM; IC50 (EGFR del19/C797S; [18]): 3.2 nM; IC50 (EGFR L858R/C797S; [19]): 14.8 nM; IC50 (EGFR wildtype (WT); [20]): 8510 nM
Cn1nc(-c2nnc(Nc3ccnc(-c4cnn(S(=O)(=O)C5CC5)c4)n3)cc2N[C@H]2CC[C@@](C)(O)CC2)cc1C(F)(F)F [Example 373, (1s,4s)-4-((6-((2-(1-(Cyclopropylsulfonyl)-1H-pyrazol-4-yl)pyrimidin-4-yl)amino)-3-(1-methyl-5-(trifluoromethyl)-1H-pyrazol-3-yl)pyridazin-4-yl)amino)-1-methylcyclohexan-1-ol]											IC50 (EGFR del19/T790M/C797S; [6]): 0.5 nM; IC50 (EGFR L858R/T790M/C797S; [7]): 3 nM; IC50 (EGFR del19/C797S; [8]): 663 nM; IC50 (EGFR L858R/C797S; [9]): 226 nM; IC50 (EGFR wildtype (WT); [10]): 714 nM
O=S(=O)(C1CC1)n1cc(-c2nccc(Nc3cc(N[C@H]4CC[C@@H](CO)CC4)c(-c4ccn(C(F)F)n4)cn3)n2)cn1 [Example 18, ((1s,4s)-4-((2-((2-(1-(Cyclopropylsulfonyl)-1H-pyrazol-4-yl)pyrimidin-4-yl)amino)-5-(1-(difluoromethyl)-1H-pyrazol-3-yl)pyridin-4-yl)amino)cyclohexyl)methanol]	0.4	0.6	1.4	13	> 10000	0.3	0.2	0.9	1.9	3	
CN(C)C(=O)C[C@H]1CC[C@@H](Nc2cc(Nc3ccnc(-c4cnn(S(=O)(=O)C5CC5)c4)n3)ncc2-c2ccn(C)n2)CC1 [Example 236, 2-((1s,4s)-4-((2-((2-(1-(Cyclopropylsulfonyl)-1H-pyrazol-4-yl)pyrimidin-4-yl)amino)-5-(1-methyl-1H-pyrazol-3-yl)pyridin-4-yl)amino)cyclohexyl)-N,N-dimethylacetamide]	0.3	0.3	0.3	2	565	0.3	0.2	0.2	0.1	0.5	
Cn1ccc(-c2cnc(Nc3ccnc(-c4cnn(S(=O)(=O)C5CC5)c4)n3)cc2N[C@H]2CC[C@H](CO)CC2)n1 [Example 229, ((1r,4r)-4-((2-((2-(1-(Cyclopropylsulfonyl)-1H-pyrazol-4-yl)pyrimidin-4-yl)amino)-5-(1-methyl-1H-pyrazol-3-yl)pyridin-4-yl)amino)cyclohexyl)methanol]	0.1	1.4	0.8	43.9	> 10000		0.1	0.4	1.4	10	
O=C1CC[C@]2(CC[C@H](Nc3cc(Nc4ccnc(-c5cnn(S(=O)(=O)C6CC6)c5)n4)ncc3-c3csc(C(F)(F)F)n3)CC2)N1 [Example 52, (5s,8s)-8-((2-((2-(1-(Cyclopropylsulfonyl)-1H-pyrazol-4-yl)pyrimidin-4-yl)amino)-5-(2-(trifluoromethyl)thiazol-4-yl)pyridin-4-yl)amino)-1-azaspiro[4.5]decan-2-one]	0.6	0.6	0.8	10	> 10000	0.6	0.4	1.3	1.6	18	
